{"source": "patent US20210290676A1", "about": "“IMPROVING THE EFFICACY AND SAFETY OF ADOPTIVE CELLULAR THERAPIES” (University of Southern California, priority 2018, published 2021)", "key": {"[1]": {"system": "Pgp+ (DiOC2(3)-dye effluxing) T cells", "assay": "DiOC2(3) dye efflux flow cytometry of inhibitor-treated T cells", "format": "cell-based, human", "settings": "treatment for 13 days, IL2 + CD3 and CD28 antibodies", "summary_of_the_method": "(§1)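 Donor PBMC-derived T cells, stimulated with IL2 (50 IU/ml) and/or CD3/CD28 antibodies (30 ng/ml), were exposed to inhibitors from day 1 for about 13 days with periodic drug re-addition. Cells were loaded with DiOC2(3) (60 ng/ml, 4° C, 40 min), effluxed at 37° C for 90 min, and optionally stained with CD62L-APC. Flow cytometry scored DiOC2(3)-dull (Pgp+) and CD62L+ populations.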"}, "[2]": {"system": "Pgp+ (DiOC2(3)-dye effluxing cells) and CD62L+ T cells", "assay": "DiOC2(3) dye efflux plus CD62L-APC staining, flow cytometry of inhibitor-treated T cells", "format": "cell-based, human", "settings": "treatment for 13 days, IL2 + CD3 and CD28 antibodies", "summary_of_the_method": "as §1"}, "[3]": {"system": "CD8+CD45RA+CCR7+CD62L+ T cells", "assay": "Flow cytometry for CD8, CD45RA, CCR7 and CD62L on inhibitor-treated T cells", "format": "cell-based, human", "settings": "cells cultured for 14 days", "summary_of_the_method": "(§2)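 Donor T cells were isolated from PBMC with CD3 microbeads and activated overnight in XVIVO 15 with IL2 50 IU/ml plus 30 ng/ml anti-CD3/CD28. They were treated with drugs from day 1, with medium and drug refreshed on days 7 and 13. After 13–14 days, cells were stained for CD8, CD45RA, CCR7 and CD62L (4 °C, 1 h) and analysed by flow cytometry.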"}, "[4]": {"system": "CD45RA+CCR7+CD62L+ T cells", "assay": "Flow cytometry for CD45RA, CCR7 and CD62L on inhibitor-treated T cells (all T cells)", "format": "cell-based, human", "settings": "cells cultured for 14 days", "summary_of_the_method": "as §2"}, "Nalm6-GLuc cells": {"system": "Nalm6-GLuc cells", "assay": "Blinatumomab induced cell death by inhibitor-treated T cells, Matador cytotoxicity assay", "format": "cell-based", "settings": "Blinatumomab 100 ng/million T cells, overnight", "protocol": "After 20 days of treatment with the inhibitors, cells from the preceding experiment were tested for their ability to induce Blinatumomab induced cell death using the Matador cytotoxicity assay. For this purpose, untreated and inhibitors-treated T cells were plated in a 24 well plate at 2×10^5 cells/well either alone or in the presence of 2×10^5 Nalm6-GLuc cells in XVIVO medium without any additional growth factors. Blinatumomab (Blincyto) was added at final concentration of 100 ng/million T cells. Cells were cultured overnight and next day supernatant was collected and assayed using the Matador assay. For the Matador Assay, 15 μl of supernatant was added to 15 μl of XVIVO medium in each well of a 384-well plate and hGLuc assay was done by adding 15 μl of 1:100 CTZ per well in well mode."}, "[5]": {"assay": "Leukapheresis with and without mobilization and manufacturing of CAR-T/TCR-T cells from cancer patients", "format": "in vivo, human", "protocol": "A study is conducted to compare the generation of cell therapy products from cancer patients who have received 2 or more cycles of prior chemotherapy. Patients with different types of different cancers (e.g., diffuse large B cell lymphoma, acute B-ALL, CLL, multiple myeloma, breast cancer, ovarian cancer, lung cancer etc.) are eligible. Leukapheresis products are collected from the subjects with and without mobilization with Perixafor (0.24 mg/kg subcutaneously daily on days 1-3). T cells are isolated and used for manufacturing of CAR-T and TCR-T cells using lentiviral mediated gene transduction as described in the preceding sections."}, "T cells": {"system": "T cells", "assay": "In vitro expansion of CAR/TCR T cells with bispecific engagers and antigen presenting cells or substrate (CFSE staining)", "format": "cell-based, human", "protocol": "Buffy coat cells are obtained from healthy de-identified adult donors from the Blood Bank and used to isolate peripheral blood mononuclear cells (PBMC) by Ficoll-Hypaque gradient centrifugation. PBMC are either used as such or used to isolate T cells using CD3 magnetic microbeads (Miltenyi Biotech) and following the manufacturer's instructions. PBMC or isolated T cells are re-suspended in XVIVO medium (Lonza) supplanted with 10 ng/ml CD3 antibody, 10 ng/ml CD28 antibody and 100 IU recombinant human-IL2. In an alternate embodiment, PBCM or T cells are activated by resuspending them at concentration of 5×10^5 cells/ml in fresh XVIVO media containing Blinatumomab (10 ng/ml) plus irradiated (100 Gy) REC-1 cells (Mantle Cell lymphoma; ATCC Catalog #CRL-3004) at concentration of 5×10^6 cells/ml in the presence of 50 IU recombinant human-IL2. In another alternate embodiment, the cell culture medium further contains a purified CD19×CD28 bispecific antibody (SEQ ID NO: 2708, 2705 or 2706) and/or a CD19×41BB bispecific antibody (SEQ ID NO: 2761, 2762, 2758 or 2764) each at concentration of about 10 ng/ml. Cells are cultured at 37° C., in a 5% CO2 humidified incubator. Cells are activated in the above medium for 1 day prior to infection with lentiviral vectors encoding a CAR or a TCR (e.g., SEQ ID NO: 2822 to 2835) or a TCR (SEQ ID NO: 2836). In general, primary cells (e.g. T cells) are infected in the morning using spin-infection (1800 rpm for 90 minutes at 37° C. with 300 μl of concentrated virus that has been re-suspended in XVIVO medium in the presence of 8 μg/ml of Polybrene® (Sigma, Catalog no. H9268). After the infection, the cells are pelleted and resuspended at concentration of 5×10^5 cells/ml in fresh XVIVO media containing Blinatumomab (10 ng/ml) plus irradiated (100 Gy) REC-1 (Mantle Cell lymphoma; ATCC Catalog #CRL-3004) cells (5×10^6 cells/ml) and 50 IU recombinant human-IL2. Cells are cultured in the above medium for 10-15 days. Culture media is supplemented with fresh REC-1 cells, blinatumomab and IL2 every 2-4 days. […] The expanded CAR-T cells are subsequently used for in vitro cytotoxicity studies, in vivo efficacy studies in NSG mice and clinical trial of patients with cancers expressing the antigens targeted by the CAR/TCR using methods known in the art.\nThe above experiment is also repeated using CD19+ RAJI and NALM6 cells. […] Thus, mantle cell lymphoma cells and, in particular, REC-1 cells are the preferred antigen presenting cells for expansion of T cells (e.g., CAR-T cells, TCR-T cells and TILs) when used in conjuction with bispecific T cell engagers that has at least one binding domain that binds to an antigen expressed on REC-1 (e.g, CD19, CD20, CD22 and BCMA). […]"}}, "data": [{"compound": "CCC(CC)n1ccc2c(C(=O)NCc3c(C)cc(C)[nH]c3=O)cc(C#N)cc21", "note": "[EI1]", "values": [{"measurement": "p2: pgp+ from Live cells", "setting": "[1]; 500 nM", "result": 33.53}, {"measurement": "p2: pgp+ from Live cells", "setting": "[1]; 1 μM", "result": 59.77}, {"measurement": "p5: double +ve pgp+ and CD62L-APC+ from Live cells", "setting": "[2]; 500 nM", "result": 10.2}, {"measurement": "p5: double +ve pgp+ and CD62L-APC+ from Live cells", "setting": "[2]; 1 μM", "result": 19.21}, {"measurement": "GATE P4 CD8(PerCP)+, CD45RA(FITC)+, CCR7 (PE)+, CD62L(APC)", "setting": "[3]; 500 nM", "result": 76.19, "unit": "%"}, {"measurement": "GATE P4 CD8(PerCP)+, CD45RA(FITC)+, CCR7 (PE)+, CD62L(APC)", "setting": "[3]; 1 μM", "result": 78.47, "unit": "%"}, {"measurement": "GATE P6 CD45RA(FITC)+, CCR7 (PE)+, CD62L(APC)", "setting": "[4]; 500 nM", "result": 67.64, "unit": "%"}, {"measurement": "GATE P6 CD45RA(FITC)+, CCR7 (PE)+, CD62L(APC)", "setting": "[4]; 1 μM", "result": 66.83, "unit": "%"}, {"measurement": "Blinatumomab induced cytotoxicity compared to untreated T cells", "setting": "Nalm6-GLuc cells; T cells after 20 days of treatment at 500 nM", "result": "significant increase in cytotoxicity"}]}, {"compound": "Cc1cc(C)c(CNC(=O)c2cc(-c3ccc(CN4CCOCC4)cc3)cc3c2cnn3C2CCCC2)c(=O)[nH]1", "note": "[EPZ005687]", "values": [{"measurement": "p2: pgp+ from Live cells", "setting": "[1]; 10 nM", "result": 23.99}, {"measurement": "p2: pgp+ from Live cells", "setting": "[1]; 100 nM", "result": 16.94}, {"measurement": "p5: double +ve pgp+ and CD62L-APC+ from Live cells", "setting": "[2]; 10 nM", "result": 5.21}, {"measurement": "p5: double +ve pgp+ and CD62L-APC+ from Live cells", "setting": "[2]; 100 nM", "result": 3.87}, {"measurement": "GATE P4 CD8(PerCP)+, CD45RA(FITC)+, CCR7 (PE)+, CD62L(APC)", "setting": "[3]; 10 nM", "result": 74.86, "unit": "%"}, {"measurement": "GATE P4 CD8(PerCP)+, CD45RA(FITC)+, CCR7 (PE)+, CD62L(APC)", "setting": "[3]; 100 nM", "result": 79.65, "unit": "%"}, {"measurement": "GATE P6 CD45RA(FITC)+, CCR7 (PE)+, CD62L(APC)", "setting": "[4]; 10 nM", "result": 64.01, "unit": "%"}, {"measurement": "GATE P6 CD45RA(FITC)+, CCR7 (PE)+, CD62L(APC)", "setting": "[4]; 100 nM", "result": 69.92, "unit": "%"}, {"measurement": "Blinatumomab induced cytotoxicity compared to untreated T cells", "setting": "Nalm6-GLuc cells; T cells after 20 days of treatment at 100 nM", "result": "significant increase in cytotoxicity"}]}, {"compound": "Cc1cc(=O)n(C)c2cc(N3C(=O)CC[C@H](NS(=O)(=O)CC(C)C)[C@H]3c3ccc(Cl)cc3)ccc12", "note": "[LP99]", "values": [{"measurement": "p2: pgp+ from Live cells", "setting": "[1]; 500 nM", "result": 19.46}, {"measurement": "p2: pgp+ from Live cells", "setting": "[1]; 1 μM", "result": 20.66}, {"measurement": "p5: double +ve pgp+ and CD62L-APC+ from Live cells", "setting": "[2]; 500 nM", "result": 3.52}, {"measurement": "p5: double +ve pgp+ and CD62L-APC+ from Live cells", "setting": "[2]; 1 μM", "result": 4.18}, {"measurement": "GATE P4 CD8(PerCP)+, CD45RA(FITC)+, CCR7 (PE)+, CD62L(APC)", "setting": "[3]; 500 nM", "result": 79.25, "unit": "%"}, {"measurement": "GATE P4 CD8(PerCP)+, CD45RA(FITC)+, CCR7 (PE)+, CD62L(APC)", "setting": "[3]; 1 μM", "result": 79.77, "unit": "%"}, {"measurement": "GATE P6 CD45RA(FITC)+, CCR7 (PE)+, CD62L(APC)", "setting": "[4]; 500 nM", "result": 69.67, "unit": "%"}, {"measurement": "GATE P6 CD45RA(FITC)+, CCR7 (PE)+, CD62L(APC)", "setting": "[4]; 1 μM", "result": 67.58, "unit": "%"}, {"measurement": "Blinatumomab induced cytotoxicity compared to untreated T cells", "setting": "Nalm6-GLuc cells; T cells after 20 days of treatment at 1 μM", "result": "significant increase in cytotoxicity"}]}, {"compound": "c1cc(CN2CCCNCCNCCCNCC2)ccc1CN1CCCNCCNCCCNCC1", "note": "[Perixafor, 1,1′-[1,4-phenylenebis(methylene)]bis [1,4,8,11-tetraazacyclotetradecane]]", "values": [{"measurement": "yield of T cells in the initial leukapheresis product", "setting": "[5]; cancer patients with 2 or more cycles of prior chemotherapy, with versus without mobilization", "result": "improves the yield"}, {"measurement": "effect on gene transduction, CAR/TCR expression, in vitro and in vivo expansion, cytotoxicity, cytokine production and anti-tumor efficacy of CAR-T/TCR-T products", "setting": "[5]; with versus without mobilization", "result": "no major adverse effect"}]}, {"compound": "Blinatumomab: a CD19×CD3 bispecific antibody", "values": [{"measurement": "expansion of CAR-T cells", "setting": "T cells; 10 ng/ml with CD19-ECD beads, CD28 antibody 10 ng/ml and IL2 50 IU, 10-25 days", "result": "Robust expansion"}, {"measurement": "expansion of cells, CFSE staining", "setting": "T cells; 10 ng/ml with irradiated REC-1 cells and 50 IU IL2, 10-15 days", "result": "Robust expansion"}, {"measurement": "degree of expansion of CAR or TCR expressing T cells", "setting": "T cells; co-culture with CD19+ RAJI and NALM6 cells instead of REC-1 cells", "result": "less than that observed with REC-1 cells"}, {"measurement": "expansion of CAR-expressing PBMC and/or T cells", "setting": "T cells; combination of Blinatumomab, CD19×CD28 bispecific antibody, REC-1 cells and IL2", "result": "Robust expansion"}]}, {"compound": "GM-CSF: cytokine used as mobilization agent", "values": [{"measurement": "yield of leukapheresis product for generation of CAR-T cells", "setting": "[5]; mobilization prior to leukapheresis", "result": "improve the yield"}]}]}
